# Source: patent US20060234237A1 (priority 2004, published 2006)
# Where a name gives a salt, the structure may show the parent alone.
# Key:
# HCT116 = experiment: In vitro cytotoxicity MTS assay; format: cell-based; conditions: Homo sapiens, HCT-116, 72 hours, mean of 2 to 5 determinations
# LOVO = experiment: In vitro cytotoxicity MTS assay; format: cell-based; conditions: Homo sapiens, 72 hours, mean of 2 to 5 determinations, asterisk = sensitive
# Colo-201 = experiment: In vitro cytotoxicity MTS assay; format: cell-based; conditions: Homo sapiens, 72 hours, mean of 2 to 5 determinations
# CX-1 = experiment: In vitro cytotoxicity MTS assay; format: cell-based; conditions: Homo sapiens, 72 hours, mean of 2 to 5 determinations
# Sk-Co-1 = experiment: In vitro cytotoxicity MTS assay; format: cell-based; conditions: Homo sapiens, 72 hours, mean of 2 to 5 determinations
# T84 = experiment: In vitro cytotoxicity MTS assay; format: cell-based; conditions: Homo sapiens, 72 hours, mean of 2 to 5 determinations
# HCT116S542 = experiment: In vitro cytotoxicity MTS assay; format: cell-based; conditions: Homo sapiens, 72 hours, mean of 2 to 5 determinations
# MIP = experiment: In vitro cytotoxicity MTS assay; format: cell-based; conditions: Homo sapiens, 72 hours, mean of 2 to 5 determinations
# SW837 = experiment: In vitro cytotoxicity MTS assay; format: cell-based; conditions: Homo sapiens, 72 hours, mean of 2 to 5 determinations
# Caco2 = experiment: In vitro cytotoxicity MTS assay; format: cell-based; conditions: Homo sapiens, Caco-2, 72 hours, mean of 2 to 5 determinations, asterisk = sensitive
# SW620 = experiment: In vitro cytotoxicity MTS assay; format: cell-based; conditions: Homo sapiens, SW-620, 72 hours, mean of 2 to 5 determinations
# CCD18Co = experiment: In vitro cytotoxicity MTS assay; format: cell-based; conditions: Homo sapiens, CCD-18Co, 72 hours, mean of 2 to 5 determinations
# Colo320DM = experiment: In vitro cytotoxicity MTS assay
# Protocol: (§4) The IC50 for each cell line was assessed by MTS assays. The average IC50 values along with standard deviations were calculated from two to five individual determinations for each cell line. […] The IC50 unit is μM.
# (§5) Cytotoxicity was assessed in cells by MTS (3-(4,5-dimethylthiazol-2-yl)-5-(3-carboxymethoxyphenyl)-2-(4-sulphenyl)-2H-tetrazolium, inner salt) assay (T. L. Riss et al., 1992, Mol. Biol. Cell, 3 (Suppl.): 184a).
# (§6) To carry out the assays, the colon cells were plated at 4,000 cell/well in 96 well microtiter plates and 24 hours later serial diluted drugs were added. […] The cells were incubated at 37° C. for 72 hours at which time the tetrazolium dye MTS (333 μg/ml final concentration) in combination with the electron coupling agent phenazine methosulfate (25 μM final concentration) was added. A dehydrogenase enzyme in live cells reduces the MTS to a form that absorbs light at 492 nm that can be quantified spectrophotometrically. The greater the absorbency, the greater the number of live cells. The results were expressed as an IC50, which is the drug concentration required to inhibit cell proliferation (i.e., absorbance at 450 mm) to 50% of that of untreated control cells. The mean IC50 and standard deviation (SD) from multiple tests for each cell line were calculated.
# CCD_33C0 = experiment: In vitro cytotoxicity MTS assay; format: cell-based; conditions: Homo sapiens, 72 hours, mean of 2 to 5 determinations, asterisk = sensitive
# SW480 = experiment: In vitro cytotoxicity MTS assay
# Protocol: as §4, §5, §6
# HCT8 = experiment: In vitro cytotoxicity MTS assay; format: cell-based; conditions: Homo sapiens, HCT-8, 72 hours, mean of 2 to 5 determinations
# LS174T = experiment: In vitro cytotoxicity MTS assay; format: cell-based; conditions: Homo sapiens, 72 hours, mean of 2 to 5 determinations, asterisk = sensitive
# SW1417 = experiment: In vitro cytotoxicity MTS assay; format: cell-based; conditions: Homo sapiens, 72 hours, mean of 2 to 5 determinations
# Colo-205 = experiment: In vitro cytotoxicity MTS assay; format: cell-based; conditions: Homo sapiens, 72 hours, mean of 2 to 5 determinations
# HT-29 = experiment: In vitro cytotoxicity MTS assay; format: cell-based; conditions: Homo sapiens, 72 hours, mean of 2 to 5 determinations
# SW403 = experiment: In vitro cytotoxicity MTS assay; format: cell-based; conditions: Homo sapiens, SW-403, 72 hours, mean of 2 to 5 determinations, asterisk = sensitive
# Colo320HSR = experiment: In vitro cytotoxicity MTS assay; format: cell-based; conditions: Homo sapiens, COLO-320-HSR, 72 hours, mean of 2 to 5 determinations
# [1] = system: H292 lung cancer cell line; conditions: serum starved, 20 ng/ml EGF, 0.5, 6 and 18 hours, vs media alone
# Protocol: (§1) Control cells were treated with media alone. The expression profiling was performed, and data was analyzed using GeneChip® Expression Analysis software MAS 5.0 (Affymetrix, Santa Clara, Calif.).
# (§2) The colon cells were grown using standard cell culture conditions: RPMI 1640 supplemented to contain 10% fetal bovine serum, 100 IU/ml penicillin, […] streptomycin, 2 mM L-glutamine and 10 mM Hepes (all from GibcoBRL, Rockville, Md.). RNA was isolated from 50-70% confluent cells or drug-treated cells using the RNeasy™ kits commercially available from Qiagen (Valencia, Calif.). Quality of the RNA was checked by measuring the 28s:18s ribosomal RNA ratio using Agilent 2100 bioanalyzer (Agilent, Technologies, Rockville, Md.). Concentration of total RNA was determined spectrophotometrically. 10 μg of total RNA from each cell line was used to prepare biotinylated probe according to the Affymetrix Genechip® Expression Analysis Technical Manual, 2001. Targets were hybridized to Affymetrix high density oligonucleotide array human HG-U133 set chips (Affymetrix, Santa Clara, Calif.). Arrays were then washed, and stained using the GeneChip Fluidics station according to the manufacture's instructions. The HG-U133 set consisting of two GeneChip® arrays contains nearly 45,000 probe sets representing more than 39,000 transcripts derived from approximately 33,000 well-substantiated human genes.
# (§3) For the EGF induction studies, the colon cell line CACO2 and the lung cancer H292 cell line were washed 2×PBS, and the media was changed to RPMI without serum. The next day the cells were treated with 20 ng/ml EGF, and eventually lysed for RNA isolation 0.5, 6 and 18 hours post treatment. Gene expression was profiled as described below.
# [2] = system: CACO2 colon cancer cell line; conditions: serum starved, 20 ng/ml EGF, 0.5, 6 and 18 hours, vs media alone
# Protocol: as §1, §2, §3
compound,measurement,setting,value
"C#Cc1cccc(Nc2ncnc3cc(OCCOC)c(OCCOC)cc23)c1 [BMS-461453, erlotinib HCl]",IC50,HCT116,> 10 µM
same,IC50,LOVO,2.3 µM
same,IC50,Colo-201,> 10 µM
same,IC50,CX-1,> 10 µM
same,IC50,Sk-Co-1,9 µM
same,IC50,T84,> 10 µM
same,IC50,HCT116S542,> 10 µM
same,IC50,MIP,9.7 µM
same,IC50,SW837,7.2 µM
same,IC50,Caco2,5.5 µM
same,IC50,SW620,> 10 µM
same,IC50,CCD18Co,7.1 µM
same,Sensitivity of cell line to the EGFR inhibitor,"Colo320DM; COLO320_DM, does not express EGFR",resistant
same,IC50,"Colo320DM; Homo sapiens, COLO 320DM, 72 h",> 10 µM
same,IC50,CCD_33C0,2 µM
same,IC50,"SW480; Homo sapiens, SW480, 72 h",> 10 µM
same,Sensitivity of cell line to the EGFR inhibitor,"SW480; SW480, expressing EGFR",insensitive
same,IC50,HCT8,> 10 µM
same,IC50,LS174T,3.5 µM
same,IC50,SW1417,> 10 µM
same,IC50,Colo-205,> 10 µM
same,IC50,HT-29,> 10 µM
same,IC50,SW403,5.7 µM
same,IC50,Colo320HSR,> 10 µM
epidermal growth factor [EGFR],Expression of 3-hydroxy-3-methylglutaryl-Coenzyme A synthase 2 stimulated,[1],Expression stimulated 3 fold by
same,"Expression of BTG family, member 2 (BTG2) stimulated",[1],Expression stimulated 2 fold by
same,Expression of cystic fibrosis transmembrane conductance regulator (CFTR) stimulated,[1],Expression stimulated 2 fold by
same,Expression of prostaglandin G/H synthase and cyclooxygenase stimulated,[1],Expression stimulated 6 fold by
same,"Expression of serine (or cysteine) proteinase inhibitor, clade B (ovalbumin), member 5 (SERPINB5) stimulated",[1],Expression stimulated 2 fold by
same,Expression of EphA1 (EPHA1) stimulated,[2],Expression stimulated 2 fold by
